Laboratory results from BindingDB's records for doi:10.1073/pnas.83.13.4918 (Merck Sharp & Dohme Research Laboratories, 1986).
pKi: −log10 of the molar value. Where a SMILES comes first, the peptide text is derived from it. [ ]: non-standard residue; d: D form. The star is where a group is joined. sY = N[C@@H](Cc1ccc(OS(=O)(=O)O)cc1)C(=O)O; Cbz = O=C(OCc1ccccc1)*

Tests used:
Cholecystokinin = target: T1, Cholecystokinin (Rattus norvegicus, UniProt P01355)
T1 sequence (P01355 whole entry): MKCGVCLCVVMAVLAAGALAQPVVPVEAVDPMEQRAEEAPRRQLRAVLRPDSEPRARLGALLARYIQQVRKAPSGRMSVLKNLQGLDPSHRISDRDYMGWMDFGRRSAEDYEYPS

[1] = target: Gamma-aminobutyric acid receptor subunit alpha-1 (Rattus norvegicus, UniProt P62813)
Sequence of Gamma-aminobutyric acid receptor subunit alpha-1 (P62813 whole entry): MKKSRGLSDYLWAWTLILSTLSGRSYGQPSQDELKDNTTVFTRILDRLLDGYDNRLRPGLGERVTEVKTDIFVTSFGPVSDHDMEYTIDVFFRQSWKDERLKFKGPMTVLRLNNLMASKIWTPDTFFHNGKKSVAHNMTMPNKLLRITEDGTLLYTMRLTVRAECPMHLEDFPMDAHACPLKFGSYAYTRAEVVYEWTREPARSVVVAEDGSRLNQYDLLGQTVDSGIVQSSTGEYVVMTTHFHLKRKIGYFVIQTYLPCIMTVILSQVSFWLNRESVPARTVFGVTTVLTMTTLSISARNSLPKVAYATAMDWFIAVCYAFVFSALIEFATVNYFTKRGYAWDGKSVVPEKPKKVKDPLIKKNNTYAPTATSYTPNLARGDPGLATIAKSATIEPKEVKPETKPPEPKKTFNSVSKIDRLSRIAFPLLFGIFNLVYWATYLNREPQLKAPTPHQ

[2] = target: GABA(A) receptor-associated protein (Sus scrofa, UniProt D7RA28)
Sequence of GABA(A) receptor-associated protein (D7RA28 whole entry): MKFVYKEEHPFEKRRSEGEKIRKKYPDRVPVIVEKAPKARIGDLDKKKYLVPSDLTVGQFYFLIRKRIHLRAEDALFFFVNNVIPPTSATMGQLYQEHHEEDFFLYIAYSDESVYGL

SMILES	pKi (Cholecystokinin)	pKi [1]	pKi [2]
O=C(NC(Cc1c[nH]c2ccccc12)C(=O)O)c1ccc(Cl)cc1 (centres undefined)	< 5.00		
O=C1Nc2ccc(Cl)cc2C(c2ccccc2)=N[C@@H]1Cc1c[nH]c2ccccc12	5.47	< 5.00	
O=C(NC1N=C(c2ccccc2)c2ccccc2NC1=O)c1cc2ccccc2[nH]1 (centres undefined)	8.33	< 5.00	
O=C(NC1N=C(c2ccccc2F)c2ccccc2NC1=O)c1cc2ccccc2[nH]1 (centres undefined)	8.68		5.52
Cc1nnc2n1-c1ccccc1C(c1ccccc1F)=NC2Cc1c[nH]c2ccccc12 (centres undefined)	6.52		6.10
CN1C(=O)[C@H](NC(=O)c2cc3ccccc3[nH]2)N=C(c2ccccc2)c2ccccc21			< 5.00
CN1C(=O)[C@@H](NC(=O)c2cc3ccccc3[nH]2)N=C(c2ccccc2)c2ccccc21 [1H-Indole-2-carboxylic acid (1-methyl-2-oxo-5-phenyl-2,3-dihydro-1H-benzo[e][1,4]diazepin-3-yl)-amide: 0.1C4H10O. 0.15CH2Cl2]			< 5.00
CSCC[C@H](NC(=O)[C@H](Cc1ccc(OS(=O)(=O)O)cc1)NC(=O)OCc1ccccc1)C(=O)NCC(=O)N[C@@H](Cc1c[nH]c2ccccc12)C(=O)N[C@@H](CCSC)C(=O)N[C@@H](CC(=O)O)C(N)=O [Benzyloxycarbonyl CCK(27-32)NH2] (Cbz-[sY]MGWMD-NH2)	5.46		
O=C1Nc2ccc(Cl)cc2C(c2ccccc2)=N[C@H]1Cc1c[nH]c2ccccc12 [CCK antagonist synthetic 6]	< 5.00	5.25	
CN1C(=O)[C@@H](Cc2c[nH]c3ccccc23)N=C(c2ccccc2)c2cc(Cl)ccc21 [CCK antagonist synthetic 7]	5.85		
O=C1Nc2ccccc2C(c2ccccc2)=N[C@@H]1Cc1c[nH]c2ccccc12 [CCK antagonist synthetic 8]	5.92	< 5.00	
O=C1Nc2ccccc2C(c2ccccc2F)=N[C@@H]1Cc1c[nH]c2ccccc12 [CCK antagonist synthetic 9]	6.30		< 5.00
CN1C(=O)[C@@H](Cc2c[nH]c3ccccc23)N=C(c2ccccc2F)c2ccccc21 [CCK antagonist synthetic 11]	6.57		< 5.00
O=C(O)CN1C(=O)[C@@H](Cc2c[nH]c3ccccc23)N=C(c2ccccc2F)c2ccccc21 [CCK antagonist synthetic 13]	6.52		< 5.00
Cc1ccc2c(C(=O)NC3N=C(c4ccccc4F)c4ccccc4NC3=O)c[nH]c2c1 (centres undefined) [CCK antagonist synthetic 15]	5.96		
CC(=O)NC1N=C(c2ccccc2F)c2ccccc2NC1=O (centres undefined) [CCK antagonist synthetic 16]	< 5.00		
O=C(O)CN1C(=O)C(NC(=O)c2cc3ccccc3[nH]2)N=C(c2ccccc2)c2ccccc21 (centres undefined) [CCK antagonist synthetic 20]	8.85		< 5.00
CN1C(=O)C(NC(=O)c2cc3ccccc3[nH]2)N=C(c2ccccc2)c2cc(F)ccc21 (centres undefined) [CCK antagonist synthetic 22]	8.85		5.11
